Experimental data: patent publication US11203591B2, “Substituted 6-azabenzimidazole compounds” (Gilead Sciences, Inc., priority 2018, dated 2021)

target: human HPK1 (MAP4K1) (Homo sapiens (Human), UniProt Q92918); assay: HPK1 IC50 Assay (TR-FRET peptide phosphorylation); type: biochemical; details: 0.15 nM HPK1, 10 μM ATP, 1 μM STK S1 peptide substrate; geometric mean
In short: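 Pre-activated, dually phosphorylated baculovirus-expressed HPK1 kinase domain (0.15 nM) preincubated 15 min with compound, then reacted 3 h at 25° C with 10 μM ATP and 1 μM STK S1 peptide in BES pH 7.0 buffer. Phosphopeptide read by TR-FRET (665/620 nm); four-parameter fit, geometric-mean IC50.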

Sequence of human HPK1 (MAP4K1) (Q92918 17-274): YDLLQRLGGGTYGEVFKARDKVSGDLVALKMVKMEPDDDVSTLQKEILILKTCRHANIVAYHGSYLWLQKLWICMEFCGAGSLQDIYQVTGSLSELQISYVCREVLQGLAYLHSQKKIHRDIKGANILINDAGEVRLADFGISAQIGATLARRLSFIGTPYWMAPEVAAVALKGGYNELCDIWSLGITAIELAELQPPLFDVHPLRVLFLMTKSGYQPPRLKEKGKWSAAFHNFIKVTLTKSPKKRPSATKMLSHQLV

Row | IC50 [nM] | SMILES
1 | 0.1 | Cc1c(C(=O)NCC(F)F)cc(Nc2nc(-c3cnc4c(c3)N([C@H]3C[C@@](C)(N5CCCC6(CC6)C5)C3)C(=O)C4(C)C)cc3ncn(C(C)C)c23)c(F)c1F [Example 284, N-(2,2-difluoroethyl)-5-((6-(3,3-dimethyl-1-((1s,3s)-3-methyl-3-(5-azaspiro[2.5]octan-5-yl)cyclobutyl)-2-oxo-2,3-dihydro-1H-pyrrolo[3,2-b]pyridin-6-yl)-3-isopropyl-3H-imidazo[4,5-c]pyridin-4-yl)amino)-3,4-difluoro-2-methylbenzamide]
2 | 0.2 | CC(C)n1cnc2cc(-c3cnc4c(c3)N([C@]3(C)C[C@H](N5CCCCC5)C3)C(=O)C4(C)C)nc(Nc3cc(C(=O)NC4(C(F)F)CC4)c(Cl)c(F)c3F)c21 [Example 297, 2-Chloro-N-(1-(difluoromethyl)cyclopropyl)-5-((6-(3,3-dimethyl-1-((1s,3s)-1-methyl-3-(piperidin-1-yl)cyclobutyl)-2-oxo-2,3-dihydro-1H-pyrrol[3,2-b]pyridin-6-yl)-3-isopropyl-3H-imidazo[4,5-c]pyridin-4-yl)amino)-3,4-difluorobenzamide]
3 | 0.08 | CC(C)n1cnc2cc(-c3cc4c(nc3F)C(C)(C)C(=O)N4[C@H]3C[C@@](C)(N4CCCCC4)C3)nc(Nc3cc(C(=O)NC4(C(F)F)CC4)c(Cl)c(F)c3F)c21 [Example 291, 2-chloro-N-(1-(difluoromethyl)cyclopropyl)-3,4-difluoro-5-((6-(5-fluoro-3,3-dimethyl-1-((1s,3s)-3-methyl-3-(piperidin-1-yl)cyclobutyl)-2-oxo-2,3-dihydro-1H-pyrrolo[3,2-b]pyridin-6-yl)-3-isopropyl-3H-imidazo[4,5-c]pyridin-4-yl)amino)benzamide]
4 | 0.1 | Cc1cc(F)c(Nc2nc(-c3ccc4c(c3)N([C@]3(C)C[C@H](N5CCCCC5)C3)C(=O)C4(C)C)cc3ncn(C(C)C)c23)cc1C(=O)NC1(C(F)F)CC1 [Example 295, N-(1-(difluoromethyl)cyclopropyl)-5-((6-(3,3-dimethyl-1-((1s,3s)-1-methyl-3-(piperidin-1-yl)cyclobutyl)-2-oxoindolin-6-yl)-3-isopropyl-3H-imidazo[4,5-c]pyridin-4-yl)amino)-4-fluoro-2-methylbenzamide]
5 | 0.1 | CC(C)NC(=O)c1cc(Nc2nc(-c3cnc4c(c3)N([C@H]3C[C@@](C)(N5CCCCC5)C3)C(=O)C4(C)C)cc3ncn(C(C)C)c23)c(F)c(F)c1Cl [Example 267, 2-chloro-5-((6-(3,3-dimethyl-1-((1s,3s)-3-methyl-3-(piperidin-1-yl)cyclobutyl)-2-oxo-2,3-dihydro-1H-pyrrolo[3,2-b]pyridin-6-yl)-3-isopropyl-3H-imidazo[4,5-c]pyridin-4-yl)amino)-3,4-difluoro-N-isopropylbenzamide]
6 | 0.1 | CC(C)n1cnc2cc(-c3ccc4c(c3)N([C@]3(C)C[C@H](N5CCCCC5)C3)C(=O)C4(C)C)nc(Nc3cc(C(=O)NC4(C(F)F)CC4)c(Cl)c(F)c3F)c21 [Example 296, 2-Chloro-N-(1-(difluoromethyl)cyclopropyl)-5-((6-(3,3-dimethyl-1-((1s,3s)-1-methyl-3-(piperidin-1-yl)cyclobutyl)-2-oxoindolin-6-yl)-3-isopropyl-3H-imidazo[4,5-c]pyridin-4-yl)amino)-3,4-difluorobenzamide]

same assay, conditions: recombinant HPK1 kinase domain 0.15 nM, 10 μM ATP, 1 μM STK S1 peptide; geometric mean of multiple experiments

Row | SMILES | IC50 [nM]
7 | CC(=O)N1CCC2(CC1)C(=O)N([C@H]1C[C@@H](N3CCCCC3)C1)c1cc(-c3cc4ncn(C(C)C)c4c(Nc4cc(C(=O)NC(C)C)c(Cl)cc4F)n3)ccc12 [Example 89] | 0.2
8 | Cc1ccc(Nc2nc(-c3cnc4c(c3)N([C@H]3C[C@@H](N5CCCCC5)C3)C(=O)C4(C)C)cc3ncn(C(C)C)c23)cc1C(=O)NC1(C(F)F)CC1 [Example 19] | 0.3
9 | CNC(=O)c1cc(Nc2nc(-c3ccc4c(c3)N([C@H]3C[C@@H](N5CC(C)(C)C5)C3)C(=O)C4(C)C)cc3ncn(C(C)C)c23)c(F)cc1C [Example 120] | 0.2
10 | CNC(=O)c1cc(Nc2nc(-c3ccc4c(c3)N([C@H]3C[C@@H](N5CCCCC5)C3)C(=O)C4(C)C)cc3ncn(C(C)C)c23)ccc1OC(F)(F)F [Example 140] | 0.3
11 | CNC(=O)c1cc(Nc2nc(-c3ccc4c(c3)N([C@H]3C[C@@H](N5CCC[C@@H](F)C5)C3)C(=O)C4(C)C)cc3ncn(C(C)C)c23)c(F)cc1C [Example 107] | 0.1
12 | Cc1cc(F)c(Nc2nc(-c3ccc4c(c3)N([C@H]3C[C@@H](N5CCCCC5)C3)C(=O)C43CCN(C4COC4)CC3)cc3ncn(C(C)C)c23)cc1C(=O)NC(C)C [Example 99] | 0.2
13 | Cc1c(C(=O)NC2(C(F)F)CC2)cc(Nc2nc(-c3cnc4c(c3)N([C@H]3C[C@@](C)(N5CC6CCC(C5)O6)C3)C(=O)C4(C)C)cc3ncn(C(C)C)c23)c(F)c1F [Example 228, 5-((6-(1-((1s,3s)-3-(8-Oxa-3-azabicyclo[3.2.1]octan-3-yl)-3-methylcyclobutyl)-3,3-dimethyl-2-oxo-2,3-dihydro-1H-pyrrolo[3,2-b]pyridin-6-yl)-3-isopropyl-3H-imidazo[4,5-c]pyridin-4-yl)amino)-N-(1-(difluoromethyl)cyclopropyl)-3,4-difluoro-2-methylbenzamide] | 0.3
14 | CC[C@H](C)n1cnc2cc(-c3ccc4c(c3)N([C@H]3C[C@@H](N5CC[C@@H](F)C5)C3)C(=O)C4(C)C)nc(Nc3cc(C(=O)NC)c(C)cc3F)c21 [Example 109] | 0.3
15 | Cc1cc(F)c(Nc2nc(-c3cnc4c(c3)N([C@H]3C[C@@](C)(N5CCCCC5)C3)C(=O)C4(C)C)cc3ncn(C(C)C)c23)cc1C(=O)NC1(C(F)F)CC1 [Example 216, N-(1-(Difluoromethyl)cyclopropyl)-5-((6-(3,3-dimethyl-1-((1s,3s)-3-methyl-3-(piperidin-1-yl)cyclobutyl)-2-oxo-2,3-dihydro-1H-pyrrolo[3,2-b]pyridin-6-yl)-3-isopropyl-3H-imidazo[4,5-c]pyridin-4-yl)amino)-4-fluoro-2-methylbenzamide] | 0.1
16 | Cc1c(C(=O)NC2(C(F)F)CC2)cc(Nc2nc(-c3cnc4c(c3)N(C3CC(C)(N5CCC6C[C@@H]6C5)C3)C(=O)C4(C)C)cc3ncn(C(C)C)c23)c(F)c1F (stereo partly drawn) [Example 233, 5-((6-(1-((1s,3s)-3-(3-azabicyclo[4.1.0]heptan-3-yl)-3-methylcyclobutyl)-3,3-dimethyl-2-oxo-2,3-dihydro-1H-pyrrolo[3,2-b]pyridin-6-yl)-3-isopropyl-3H-imidazo[4,5-c]pyridin-4-yl)amino)-N-(1-(difluoromethyl)cyclopropyl)-3,4-difluoro-2-methylbenzamide] | 0.08
17 | CNC(=O)c1cc(Nc2nc(-c3cnc4c(c3)N([C@H]3C[C@@H](N5CCCCC5)C3)C(=O)C4(C)C)cc3ncn(C(C)C)c23)c(F)cc1C [Example 111] | 0.3
18 | Cc1ccc(Nc2nc(-c3ccc4c(c3)N([C@H]3C[C@@H](N5CCCCC5)C3)C(=O)C43CCN(CC(F)F)CC3)cc3ncn(C(C)C)c23)cc1C(=O)NC(C)C [Example 62] | 0.1
19 | Cc1cc(F)c(Nc2nc(-c3cnc4c(c3)N([C@H]3C[C@@H](N5CCCCC5)C3)C(=O)C4(C)C)cc3ncn(C(C)C)c23)cc1C(=O)NC1(C(F)F)CC1 [Example 67] | 0.3

Now from value to molecule:

Row | IC50 [nM] | SMILES
20 | 0.1 | Cc1ccc(Nc2nc(-c3ccc4c(c3)N([C@H]3C[C@@H](N5CCCCC5)C3)C(=O)C4(C)C)cc3ncn(C(C)C)c23)cc1C(=O)N[C@@H](C)CF [Example 29]
21 | 0.1 | CNC(=O)c1cc(Nc2nc(-c3ccc4c(c3)N([C@H]3C[C@@H](N5CCCCC5)C3)C(=O)C43CCN(C(=O)C4(C)CC4)CC3)cc3ncn(C4CC4)c23)ccc1C [Example 150]
22 | 0.1 | CNC(=O)c1cc(Nc2nc(-c3ccc4c(c3)N([C@H]3C[C@@H](N5CCC(C)(C)C5)C3)C(=O)C4(C)C)cc3ncn(C(C)C)c23)ccc1C [Example 3]
23 | 0.09 | CNC(=O)c1cc(Nc2nc(-c3ccc4c(c3)N([C@H]3C[C@@H](N5CCCCC5)C3)C(=O)C43CCN(C(=O)C(C)(C)C)CC3)cc3ncn(C4CC4)c23)ccc1C [Example 98]
24 | 0.09 | CCn1cnc2cc(-c3ccc4c(c3)N([C@H]3C[C@@H](N5CCCCC5)C3)C(=O)C4(C)C)nc(Nc3ccc(C)c(C(=O)NC)c3)c21 [Example 102]
25 | 0.08 | CNC(=O)c1cc(Nc2nc(-c3ccc4c(c3)N([C@H]3C[C@@H](N5CCCCC5)C3)C(=O)C43CCN(C(C)=O)CC3)cc3ncn(C(C)C)c23)c(F)cc1C [Example 92]
26 | 0.06 | CC(C)n1cnc2cc(-c3cnc4c(c3)N([C@H]3C[C@@](C)(N5CCCCC5)C3)C(=O)C4(C)C)nc(Nc3cc(C(=O)NC4(C(F)F)CC4)ccc3F)c21 [Example 218, N-(1-(difluoromethyl)cyclopropyl)-3-((6-(3,3-dimethyl-1-((1s,3s)-3-methyl-3-(piperidin-1-yl)cyclobutyl)-2-oxo-2,3-dihydro-1H-pyrrolo[3,2-b]pyridin-6-yl)-3-isopropyl-3H-imidazo[4,5-c]pyridin-4-yl)amino)-4-fluorobenzamide]
27 | 0.06 | CC(C)n1cnc2cc(-c3cnc4c(c3)N([C@H]3C[C@@](C)(N5CCCCC5)C3)C(=O)C4(C)C)nc(Nc3cc(C(=O)NC4CC4)c(Cl)c(F)c3F)c21 [Example 265, 2-chloro-N-cyclopropyl-5-((6-(3,3-dimethyl-1-((1s,3s)-3-methyl-3-(piperidin-1-yl)cyclobutyl)-2-oxo-2,3-dihydro-1H-pyrrolo[3,2-b]pyridin-6-yl)-3-isopropyl-3H-imidazo[4,5-c]pyridin-4-yl)amino)-3,4-difluorobenzamide]
28 | 0.06 | Cc1ccc(Nc2nc(-c3ccc4c(c3)N([C@H]3C[C@@H](N5CCCCC5)C3)C(=O)C4(C)C)cc3ncn(C(C)C)c23)cc1C(=O)NCC(C)C [Example 139]
29 | 0.05 | CC[C@H](C)n1cnc2cc(-c3ccc4c(c3)N([C@H]3C[C@@H](N5CCCCC5)C3)C(=O)C4(C)C)nc(Nc3ccc(Cl)c(C(=O)NC)c3)c21 [Example 114]
30 | 0.05 | CNC(=O)c1cc(Nc2nc(-c3ccc4c(c3)N([C@H]3C[C@@H](N5CCCCC5)C3)C(=O)C43CCN(C(=O)[C@@H](C)O)CC3)cc3ncn(C4CC4)c23)ccc1C [Example 151]
